Where two headings read alike, the source gives them in different places. Each block holds one molecule with its values, some of them ahead of it.
How the values were obtained:
[1] = tested on: hepatic esterases of MLS9; assay: Identification of hepatic esterases by chemical inhibition, curcumin formation rate, MLS9; details: inhibitor 100 μM (EDTA 1 mM), preincubated 30 min at 37°C, MLS9 0.02 mg/ml, CDD 3 µM, 0.5 min
[2] = tested on: hepatic esterases of HLS9; assay: Identification of hepatic esterases by chemical inhibition, curcumin formation rate, HLS9; details: inhibitor 100 μM (EDTA 1 mM), preincubated 30 min at 37°C, HLS9 0.02 mg/ml, CDD 3 µM, 1 min
[3] = enzymatic hydrolysis, cited from earlier work
[4] = tested on: monkey LS9 (MLS9; cynomolgus); assay: In vitro metabolism profiling of CDD in monkey liver S9 (1 mg/ml); format: in vitro ADME
Protocol: (§1) The metabolism profiles of CDD were investigated against HLS9, MLS9, DLS9, and RLS9. A stock solution of CDD was prepared at 150 µM in 50% acetonitrile in water before use. The metabolism study was initiated by spiking 735 µl of preincubated LS9 with 15 µl of CDD stock solution, and the mixture was subsequently incubated at 37°C. The final concentrations of CDD and LS9 were 3 μM and 1 mg/ml, respectively. A 50-µl aliquot from the mixture was collected at 0.5, 1, 2, 3, 4, 5, 10, 15, 30, 45, 60, 90, and 120 min and immediately mixed with 100 µl of ice-cold acetonitrile containing 0.45 µM of internal standard DMC to terminate the metabolic reaction. […] The sample at the initial time point (0 min) was prepared as the other samples, except that heat-inactivated HLS9, MLS9, DLS9, and RLS9 (80°C for 20 min; 1 mg/ml protein) were used.
(§2) The UHPLC system consisted of an Agilent series 1290 quaternary pump with an online degasser, autosampler, column oven, and diode array detector. The mobile phase was composed of (A) 0.1% (v/v) formic acid in acetonitrile and (B) 0.1% (v/v) formic acid in water. Each solution was filtered through a nylon filter (pore size, 0.22 µm; MS® Membrane Filters; Membrane Solutions, United States) before use. The mobile phase flow rate was kept at 1.2 ml/min in a gradient mode using the following elution program: 0–3.0 min, initial A-B (40:60, v/v); 4.5–7.0 min, isocratic elution A-B [50:50, (v/v); 8.5–11.0 min, isocratic elution A-B (60:40, v/v); and 12.0–17.0 min, isocratic elution A-B (40:60, v/v)]. CDD, curcumin, and MSCUR in the supernatant were partitioned using a C8 column (4.6 mm × 50 mm, 2.7 µm; HALO, Advanced Materials Technology, United States) with reference to DMC. The detection wavelength was set at 400 nm (λ max(CDD) = 400 nm, λ max(curcumin) = 427 nm, λ max(MSCUR) = 418 nm, and λ max(DMC) = 421 nm). The column was maintained at 35°C throughout the run, and the supernatant injection volume was set at 20 µl.
(§3) The concentrations of CDD, curcumin, and MSCUR in the supernatant were determined from the standard plots, which were prepared by spiking individual working solutions of the compounds to heat-inactivated HLS9, MLS9, DLS9, and RLS9 ([Alcorn et al., 2007]; [Montoro-Garcia et al., 2009]; [Singh et al., 2010]). These working standards were extracted with 100 µl of ice-cold acetonitrile containing 0.45 µM of DMC and then 120 μl of the supernatant was diluted with 40 μl of water prior to the UHPLC analysis. The peak area ratios of CDD, curcumin, and MSCUR to the internal standard were computed against linear concentration ranges of 0.025–4.5 µM CDD, 0.025–4.5 µM curcumin, and 0.0125–0.75 µM MSCUR, respectively, with the coefficient of determination (r^2) values greater than 0.99.
(§4) The percent content of CDD and the metabolites formed upon its incubation with LS9, namely, curcumin and MSCUR, was plotted against incubation time.
(§5) The following equations were adopted to describe the changes in CDD and MSCUR content over time (t): A = A0e^−k1t (2) B= k1A0/k2−k1(e^−k1t−e^−k2t), (3) where A0 is the CDD concentration at time 0, k 1 is the degradation rate constant of CDD, and k 2 is the degradation rate constant of MSCUR. k 1 and k 2 were determined by using Eqs. 2 and 3, respectively, with nonlinear regression analysis using the SOLVER function of Microsoft Excel for Office 365 MSO (16.0.12527.20986) ([Brown, 2001]). The half-life (t 1/2) was calculated using Eq. 4: t1/2=0.693/k (4)
(§6) The in vitro intrinsic clearance (CLint,in vitro) of CDD and MSCUR in LS9 was calculated using Eq. 5: CLint, in vitro= k × [V]incubation(ml)/[P]incubation(mg protein), (5) where [V]incubation is the incubation volume in ml, and [P]incubation is the amount of LS9. […]

[5] = as above; format: in vitro ADME, monkey (cynomolgus); details: liver S9; monkey LS9 1 mg/ml; read-out: t 1/2 (MSCUR)
Protocol: as §1, §2, §3, §4, §5, §6

[6] = In vitro metabolism profiling of CDD in rat liver S9 (1 mg/ml); format: in vitro ADME, rat (Sprague–Dawley); details: Sprague-Dawley, liver S9; rat LS9 1 mg/ml; read-out: t 1/2 (MSCUR)
Protocol: as §1, §2, §3, §4, §5, §6

[7] = tested on: rat LS9 (RLS9; Sprague–Dawley); assay: as above; format: in vitro ADME
Protocol: as §1, §2, §3, §4, §5, §6

[8] = In vitro metabolism profiling of CDD in human liver S9 (1 mg/ml); format: in vitro ADME; details: pooled liver S9; human LS9 1 mg/ml; read-out: t 1/2 (MSCUR)
Protocol: as §1, §2, §3, §4, §5, §6

[9] = tested on: human LS9 (HLS9; pooled); assay: as above; format: in vitro ADME
Protocol: as §1, §2, §3, §4, §5, §6

[10] = tested on: LS9 from all tested species (HLS9, MLS9, DLS9, RLS9); assay: In vitro metabolism profiling of CDD, statements for LS9 from all tested species; format: in vitro ADME, human, monkey, dog, rat
Protocol: as §1, §2
The concentrations of CDD, curcumin, and MSCUR in the supernatant were determined from the standard plots, which were prepared by spiking individual working solutions of the compounds to heat-inactivated HLS9, MLS9, DLS9, and RLS9 ([Alcorn et al., 2007]; [Montoro-Garcia et al., 2009]; [Singh et al., 2010]). […]
as §5, with “2 and 3, respectively, with nonlinear regression analysis using the SOLVER function of Microsoft Excel for Office 365 MSO (16.0.12527.20986) ([Brown, 2001]).” left out

[11] = In vitro metabolism profiling of CDD in dog liver S9 (1 mg/ml); format: in vitro ADME, dog (beagle); details: beagle, liver S9; dog LS9 1 mg/ml; read-out: t 1/2 (MSCUR)
Protocol: as §1, §2, §3, §4, §5, §6

[12] = tested on: dog LS9 (DLS9; beagle); assay: as above; format: in vitro ADME
Protocol: as §1, §2, §3, §4, §5, §6

Molecule: C=CC[N+](C)(C)c1ccc(CCC(=O)CCc2ccc([N+](C)(C)CC=C)cc2)cc1.[Br-].[Br-] [1,5-bis(4-allyldimethylammoniumphenyl) pentan-3-one dibromide]
- inhibition of CDD hydrolysis in MLS9 (relative curcumin formation rate) [1]: no enzyme inhibitory effects

Molecule: O=[N+]([O-])c1ccc(OP(=O)(O)Oc2ccc([N+](=O)[O-])cc2)cc1 [BNPP, Bis(4-nitrophenyl) phosphate]
- inhibition of CDD hydrolysis in MLS9 (relative curcumin formation rate) [1]: inhibited
- inhibition of CDD hydrolysis in HLS9 (relative curcumin formation rate) [2]: inhibited

Molecule: O=C(O)c1cc(SSc2ccc([N+](=O)[O-])c(C(=O)O)c2)ccc1[N+](=O)[O-] [DTNB, 5,5′-dithiobis (2-nitrobenzoic acid)]
- inhibition of CDD hydrolysis in MLS9 (relative curcumin formation rate) [1]: no enzyme inhibitory effects
- inhibition of CDD hydrolysis in HLS9 (relative curcumin formation rate) [2]: to a lesser extent

Molecule: O=C(O)CN(CCN(CC(=O)O)CC(=O)O)CC(=O)O [EDTA, ethylenediaminetetraacetic acid]
- inhibition of CDD hydrolysis in MLS9 (relative curcumin formation rate) [1]: no enzyme inhibitory effects

Molecule: CC(C)OC(=O)[C@H](C)N[P@](=O)(OC[C@H]1O[C@@](C#N)(c2ccc3c(N)ncnn23)[C@](C)(O)[C@@H]1OC(=O)C(C)C)Oc1ccccc1 [GS-6620]
- t 1/2 ([3]; ref Murakami et al., 2014): approximately 4.0 min

- CLint, in vitro(MSCUR) of MLS9 higher than that of HLS9 ([4]; MLS9 vs HLS9): ~1.7 fold
- CLint, in vitro(MSCUR) ([4]; monkey LS9): 20.79 ± 3.13 ml min^−1 mg protein^−1
- k 2 (MSCUR) ([4]; monkey LS9 1 mg/ml, CDD 3 µM, 37°C): 20.79 ± 3.13 min⁻¹
- CLint, in vivo(MSCUR) ([4]; monkey, scaled from CLint,in vitro): 4,527.30 ± 682.15 L h^−1 kg^−1
- half-life at 3 µM [5]: 2.034 ± 0.00324 s
- half-life at 3 µM [6]: 4.314 ± 0.00264 s
- CLint, in vitro(MSCUR) of RLS9 lower than that of HLS9 ([7]; RLS9 vs HLS9): 0.8 fold
- CLint, in vitro(MSCUR) ([7]; rat LS9): 9.66 ± 0.60 ml min^−1 mg protein^−1
- k 2 (MSCUR) ([7]; rat LS9 1 mg/ml, CDD 3 µM, 37°C): 9.66 ± 0.60 min⁻¹
- CLint, in vivo(MSCUR) ([7]; rat, scaled from CLint,in vitro): 2,805.37 ± 174.76 L h^−1 kg^−1
- half-life [8]: 3.456 ± 0.00252 s
- CLint, in vitro(MSCUR) ([9]; human LS9): 12.07 ± 0.86 ml min^−1 mg protein^−1
- k 2 (MSCUR) ([9]; human LS9 1 mg/ml, CDD 3 µM, 37°C): 12.07 ± 0.86 min⁻¹
- CLint, in vivo(MSCUR) ([9]; human, scaled from CLint,in vitro): 2,251.20 ± 161.06 L h^−1 kg^−1
- maximum amount of M2 or MSCUR ([10]; at 0.5 min of incubation of CDD 3 µM in LS9): approximately 10%
- half-life at 3 µM [11]: 1.704 ± 0.0018 s
- CLint, in vitro(MSCUR) of DLS9 higher than that of HLS9 ([12]; DLS9 vs HLS9): approximately two
- CLint, in vitro(MSCUR) ([12]; dog LS9): 24.61 ± 2.55 ml min^−1 mg protein^−1
- k 2 (MSCUR) ([12]; dog LS9 1 mg/ml, CDD 3 µM, 37°C): 24.61 ± 2.55 min⁻¹
- CLint, in vivo(MSCUR) ([12]; dog, scaled from CLint,in vitro): 5,716.98 ± 592.58 L h^−1 kg^−1
Molecule: CCOC(=O)CCC(=O)Oc1ccc(/C=C/C(=O)/C=C(O)/C=C/c2ccc(O)c(OC)c2)cc1OC [MSCUR, monoethylsuccinyl curcumin]

Molecule: O=C([O-])c1cc[c]([Hg][OH])cc1.[Na+] [PCMB, 4-(hydroxymercurio) benzoic acid sodium salt]
- inhibition of CDD hydrolysis in MLS9 (relative curcumin formation rate) [1]: no enzyme inhibitory effects
- inhibition of CDD hydrolysis in HLS9 (relative curcumin formation rate) [2]: inhibited

Molecule: O=S(=O)(F)Cc1ccccc1 [PMSF, phenylmethylsulfonyl fluoride]
- inhibition of CDD hydrolysis in HLS9 (relative curcumin formation rate) [2]: to a lesser extent

Molecule: C[C@@H]1CC[C@@]2(OC1)O[C@H]1[C@@H](O)[C@H]3[C@@H]4CC[C@H]5C[C@@H](O[C@@H]6O[C@H](CO)[C@H](O[C@@H]7O[C@H](CO)[C@@H](O)[C@H](O[C@@H]8OC[C@@H](O)[C@H](O)[C@H]8O)[C@H]7O[C@@H]7O[C@H](CO)[C@H](O)[C@H](O[C@@H]8O[C@H](CO)[C@@H](O)[C@H](O)[C@H]8O)[C@H]7O)[C@H](O)[C@H]6O)[C@H](O)C[C@]5(C)[C@H]4CC[C@]3(C)[C@H]1[C@@H]2C [digitonin]
- inhibition of CDD hydrolysis in HLS9 (relative curcumin formation rate) [2]: inhibited

Molecule: CC(C)NP(=O)(NC(C)C)OP(=O)(NC(C)C)NC(C)C [iso-OMPA, tetra(monoisopropyl) pyrophosphortetramide]
- inhibition of CDD hydrolysis in HLS9 (relative curcumin formation rate) [2]: to a lesser extent

Molecule: CN(C)C(=O)C(CCN1CCC(O)(c2ccc(Cl)cc2)CC1)(c1ccccc1)c1ccccc1 [loperamide]
- inhibition of CDD hydrolysis in HLS9 (relative curcumin formation rate) [2]: inhibited

Molecule: COC(=O)[C@H](c1ccccc1Cl)N1CCc2sc(OC(C)=O)cc2C1 [vicagrel]
- t 1/2 ([3]; ref Qiu et al., 2016): approximately 1.6 min

Molecule: curcumin
- curcumin (M1) produced ([10]; following 15 min of incubation of CDD 3 µM in each LS9): ~70%

Reference: PMC7703437, “In Vitro Hepatic Metabolism of Curcumin Diethyl Disuccinate by Liver S9 from Different Animal Species” (Frontiers in Pharmacology, 2020)
